Data set [1] has as its system Human immunodeficiency virus 1. The data set can be described thus: Antiviral activity against HIV1 3B expressing wild type reverse transcriptase infected in human MT4 cells assessed as protection against virus-induced cytopathic effect after 5 days by MTT assay. The format is functional, cell-based. The settings on record: Human immunodeficiency virus 1, 3B, MT4, 120 h. (Protection from cytopathic effect is a common read-out in antiviral testing.)

Data set [2] deals with Human immunodeficiency virus 1. As to the kind of experiment: Antiviral activity against HIV1 RES056 expressing reverse transcriptase K103N/Y181C double mutant infected in human MT4 cells assessed as protection against virus-induced cytopathic effect after 5 days by MTT assay. Type of data set: functional, cell-based. The settings on record: Human immunodeficiency virus 1, RES056, MT4, 120 h.

Data set [3] is described as follows: Cytotoxicity against mock-infected human MT4 cells assessed as reduction in cell viability after 5 days by MTT assay. Type of data set: toxicity, cell-based. A general note: Formazan colour is commonly taken as a measure of viable cells.
Data set [4] in a line: Selectivity index, ratio of CC50 for mock-infected human MT4 cells to EC50 for HIV1 3B expressing wild type reverse transcriptase. The format is toxicity, cell-based. The following applies: read-out: Ratio CC50/EC50.
Data set [5] in a line: Selectivity index, ratio of CC50 for mock-infected human MT4 cells to EC50 for HIV1 RES056 expressing reverse transcriptase K103N/Y181C double mutant. Type of data set: toxicity, cell-based. The settings on record: read-out: Ratio CC50/EC50.
Data set [6] in a line: Solubility of the compound. Type of data set: physicochemical.
The target in data set [7] is Human immunodeficiency virus type 1 reverse transcriptase (Human immunodeficiency virus 1, UniProt Q72547). The data set can be described thus: Inhibition of recombinant wild type HIV1 p66/p51 using poly(rA) template/oligo(dT)16 primer after 40 mins by PicoGreen-based spectrofluorometric method.

Consider `Cc1cc(C#N)cc(C)c1Oc1cc(Cl)nc(NC2CCN(Cc3ccc(S(C)(=O)=O)cc3)CC2)c1`, for which the EC50 – broadly, the concentration giving half of the maximal effect – is 0.0091 µM in data set [1] and > 1.5 µM in data set [2]. Further, the CC50 (usually the concentration giving 50% cytotoxicity) at 120 h in data set [3] turned out to be 1.5 µM. Also, the selectivity ratio in data set [4] was 168; in data set [5], < 1. Besides, the solubility (commonly how much of the substance goes into solution per volume) in data set [6] was > 48 µM. Besides, in data set [7], the half-maximal inhibitory concentration (IC50) (as a rule, the concentration that inhibits the measured activity by half) was 0.08 µM.
For the compound `Cc1cc(C)c(Oc2cc(Cl)nc(NC3CCN(Cc4ccc(C(N)=O)cc4)CC3)c2)c(C)c1`, the concentration giving a half-maximal response (EC50) in data set [1] is 0.035 µM; in data set [2], > 8.2 µM. Besides, the cytotoxic concentration (CC50) at 120 h in data set [3] is 8.2 µM. In addition, the values for the selectivity ratio in data set [4] and in data set [5] were 230 and < 1, respectively. Besides, the solubility in data set [6] is > 52 µM. In data set [7], the IC50 came to 0.098 µM.
For the compound `Cc1cn([C@H]2C[C@H](N=[N+]=[N-])[C@@H](CO)O2)c(=O)[nH]c1=O` [ZIDOVUDINE], in data set [3], the CC50 at 120 h is > 93.5 µM. The figures for the selectivity ratio in data set [4] and in data set [5] were > 13400 and > 15000, respectively.
For `Cc1cc(C#N)cc(C)c1Oc1nc(Nc2ccc(C#N)cc2)nc(N)c1Br` [ETRAVIRINE], the half-maximal effective concentration (EC50) in data set [1] was 0.0095 µM. For the same compound, the 50% cytotoxic concentration (CC50) at 120 h in data set [3] is > 4.6 µM. Also, the solubility in data set [6] is < 1 µM.
Consider `Cc1cc(C#N)cc(C)c1Oc1cc(Cl)nc(Nc2ccc(CN3CCOCC3)cc2)c1`, for which the EC50 is 0.93 µM in data set [1] and > 6.9 µM in data set [2]. In data set [3], the CC50 at 120 h stood at 7 µM. The results for the selectivity ratio in data set [4] and in data set [5] were 7 and < 1, respectively. For the same compound, the solubility in data set [6] was > 56 µM. Besides, the half-inhibitory concentration (IC50) in data set [7] came out at 1.32 µM.
As to `Cc1cc(C)c(Oc2cc(Cl)nc(Nc3ccc(CN4CCOCC4)cc3)c2)c(C)c1`, the EC50 in data set [1] is 2.4 µM; in data set [2] it was > 26 µM. The CC50 at 120 h in data set [3] turned out to be 26 µM. Also, the selectivity ratio was 11 in data set [4] and < 1 in data set [5]. In data set [6], the solubility was > 57 µM. Besides, the IC50 in data set [7] was 2.62 µM.
For `Cc1cc(C)c(Oc2cc(Cl)nc(NC3CCN(CC4CC4)CC3)c2)c(C)c1`, the EC50 in data set [1] was > 5.2 µM. Besides, the half-maximal cytotoxic concentration (CC50) at 120 h in data set [3] is 5.2 µM. In addition, in data set [4], the selectivity ratio was < 1. In addition, the solubility in data set [6] is > 62 µM.
As to `O=C1Nc2ccc(Cl)cc2[C@@](C#CC2CC2)(C(F)(F)F)O1` [EFAVIRENZ], the figures for the half-maximal effective concentration (EC50) in data set [1] and in data set [2] were 0.0068 µM and 0.24 µM, respectively. The CC50 at 120 h in data set [3] is > 6.3 µM.
On to `Cc1cc(C)c(Oc2cc(Cl)nc(NC3CCN(CC4CCC4)CC3)c2)c(C)c1`, for which the EC50 in data set [1] was > 4.6 µM. Moreover, in data set [3], the CC50 at 120 h came out at 4.6 µM. The selectivity ratio in data set [4] is < 1. For the same compound, the solubility in data set [6] was > 60 µM.
On the same counts, the results for `COc1cc(Oc2c(C)cc(C#N)cc2C)cc(NC2CCN(CC3CC3)CC2)n1` are ≥ 9.2 µM, 8.6 µM, ≤ 1 and > 307 µM.
In the case of `CC(C)Nc1cccnc1N1CCN(C(=O)c2cc3cc(NS(C)(=O)=O)ccc3[nH]2)CC1` [DELAVIRDINE], the EC50 in data set [2] is > 36.2 µM. Besides, the CC50 at 120 h in data set [3] is > 36.2 µM. For the same compound, in data set [4], the selectivity ratio was > 59.
For `Cc1ccnc2c1NC(=O)c1cccnc1N2C1CC1` [NEVIRAPINE], the 50% effective concentration (EC50) in data set [2] was ≥ 9.8 µM. Further, in data set [3], the cytotoxic concentration (CC50) at 120 h was > 15 µM.
Turning to `Nc1ccn([C@@H]2CS[C@H](CO)O2)c(=O)n1` [LAMIVUDINE], the EC50 in data set [1] turned out to be 3.1 µM. Further, in data set [3], the 50% cytotoxic concentration (CC50) at 120 h was > 87.2 µM. Further, the selectivity ratio in data set [4] is > 28.
Turning to `Cc1cc(C#N)cc(C)c1Oc1cc(Cl)nc(NC2CCN(CC3CC3)CC2)c1`, the EC50 in data set [1] is ≥ 6.4 µM. The half-maximal cytotoxic concentration (CC50) at 120 h in data set [3] stood at 9.6 µM. Also, in data set [4], the selectivity ratio is ≤ 2. In addition, in data set [6], the solubility was > 304 µM.
As to `Cc1cc(C#N)cc(C)c1Oc1cc(Cl)nc(NC2CCN(CC3CCC3)CC2)c1`, the EC50 in data set [1] and in data set [2] was > 4.2 µM in each case. In addition, in data set [3], the half-maximal cytotoxic concentration (CC50) at 120 h was determined as 4.2 µM. Also, the selectivity ratio in data set [4] and in data set [5] was < 1 in each case. The solubility in data set [6] was > 59 µM.
